From publication PMC7802075 (ACS Infectious Diseases, 2020)
“Also recorded” adds a separate entry of the source. Where two headings read alike, the source gives them in different places.

Assays:
[1] = test system: clemastine fumarate-resistant L. major promastigotes (cl.C and cl.D); format: cell-based, Leishmania major
[2] = biological target: T1, LmjIPCS (inositol phosphorylceramide synthase from L. major) (Leishmania major, UniProt E9AFX2); experiment: biochemical; format: biochemical; design: inhibition: dose or concentration left out as unconfirmed; conditions: for inhibition: read-out: inhibition LmjIPCS
T1 sequence (E9AFX2 1-338): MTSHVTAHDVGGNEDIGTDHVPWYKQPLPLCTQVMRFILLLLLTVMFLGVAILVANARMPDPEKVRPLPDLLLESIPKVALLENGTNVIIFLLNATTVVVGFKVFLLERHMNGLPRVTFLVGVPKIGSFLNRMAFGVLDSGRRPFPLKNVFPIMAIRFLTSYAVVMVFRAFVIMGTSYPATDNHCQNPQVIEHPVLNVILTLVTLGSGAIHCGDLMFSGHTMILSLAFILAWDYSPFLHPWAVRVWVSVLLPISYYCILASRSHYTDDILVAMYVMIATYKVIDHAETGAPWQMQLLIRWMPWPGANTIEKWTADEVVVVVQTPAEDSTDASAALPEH

[3] = test system: L. major (FV1) promastigotes; experiment: Antipromastigote resazurin assay, L. major (FV1) wild type; format: cell-based, Leishmania major
[4] = NINDS set screen against L. major promastigotes, single concentration printed as 10mM
[5] = NINDS set screen, single concentration printed as 20mM
[6] = L. major promastigotes, dose response

SMILES	10mM inhibition L. major [3, 4]	20mM inhibition LmjIPCS [2, 5]	20mM inhibition LmjIPCS [2]	other results
NC[C@@H]1O[C@H](O[C@H]2[C@@H](O)[C@H](O[C@@H]3[C@@H](O)[C@H](N)C[C@H](N)[C@H]3O[C@H]3O[C@H](CO)[C@@H](O)[C@H](O)[C@H]3N)O[C@@H]2CO)[C@H](N)[C@@H](O)[C@@H]1O [paromomycin, reference compound]	–	–	–	cross-resistance in clemastine fumarate-resistant L. major clones [1]: no evidence for cross-resistance; inhibition [2]: -17%
N=C(N)c1ccc(OCCCCCOc2ccc(C(=N)N)cc2)cc1 [pentamidine 9, pentamidine, reference compound]	–	–	–	cross-resistance in clemastine fumarate-resistant L. major clones [1]: no evidence for cross-resistance; also recorded: statistically significant hypersensitivity; 10mM inhibition L. major [3]: 59%; ED50 vs L. major [3]: 2050 µM
CCCC1O[C@@H]2C[C@H]3[C@@H]4CCC5=CC(=O)C=C[C@]5(C)[C@H]4[C@@H](O)C[C@]3(C)[C@]2(C(=O)CO)O1 (stereo partly shown) [BUDESONIDE]	<5%	79%	–	–
[H]/N=C(/NCCCCC)N/N=C/c1c[nH]c2ccc(OC)cc12 [TEGASEROD]	–	71%	–	inhibition of growth at 10000 µM ([3]; Leishmania major, NINDS set screen against L. major promastigotes, single concentration printed as 10mM): < 5%
CCCCCCCCCCCCCCCC[N+](C)(C)C [CETRIMONIUM]	<5%	–	75%	–
CCCCCCCCCCCCCCCCOP(=O)([O-])OCC[N+](C)(C)C [miltefosine, reference compound]	–	–	–	cross-resistance in clemastine fumarate-resistant L. major clones [1]: no evidence for cross-resistance; inhibition [2]: 3.35%
CC(CN1c2ccccc2Sc2ccccc21)N(C)C (stereo not shown) [PROMETHAZINE]	<5%	78%	–	–
CC(C)=CCc1c2c(c3occ(-c4ccc(O)c(O)c4)c(=O)c3c1O)C=CC(C)(C)O2 [POMIFERIN]	<5%	73%	–	–
C[C@]12CC[C@@H]3c4ccc(O)cc4CC[C@H]3[C@@H]1CC[C@@H]2OC(=O)CCC1CCCC1 [ESTRADIOL CYPIONATE]	<5%	–	83%	–
NC[C@@H]1O[C@H](O[C@H]2[C@@H](O)[C@H](O[C@@H]3[C@@H](O)[C@H](N)C[C@H](N)[C@H]3O[C@H]3O[C@H](CN)[C@@H](O)[C@H](O)[C@H]3N)O[C@@H]2CO)[C@H](N)[C@@H](O)[C@@H]1O [NEOMYCIN]	<5%	88%	–	–
CC1=C2C(=CO[C@H](C)[C@H]2C)C(O)=C(C(=O)O)C1=O [CITRININ]	<5%	–	76%	–
Cc1nnc(NS(=O)(=O)c2ccc(N)cc2)s1 [sulfamethizole 14, sulfamethizole, reference compound]	68%	–	77%	ED50 vs L. major [3, 6]: 39600 µM; antileishmanial activity ([3]; L. major promastigotes, secondary dose response): poor antileishmanial activity; IC50 [2]: > 100 µM; IC50 against LmjIPCS [2]: could not be determined
CN(C)CCCN1c2ccccc2Sc2ccccc21 [PROMAZINE]	<5%	–	77%	–
CN(C)CCCN1c2ccccc2Sc2ccc(Cl)cc21 [chlorpromazine 3, chlorpromazine, reference compound]	76%	–	88%	ED50 vs L. major [3, 6]: 9800 µM; EC50 ([3]; Leishmania major, secondary dose response, L. major (FV1), read-out: EC50 against L. major promastigotes): > 1 µM; IC50 [2]: 4.7 µM; LmjIPCS inhibition ([2]; secondary dose response): confirmed
